Legend:
[1] = system: Carrageenan-induced rat foot paw edema; test: Carrageenan-induced rat foot paw edema 2 (CFE 2) assay; type: in vivo; conditions: 3 mg/kg, dosed 1 hour before carrageenan, edema measured 5 hours after carrageenan
Experimental: Carraogenan-Induced Rat Foot Paw Edema 2 (CFE 2) Assay: Protocol
Carageenan solution (1% w/v) is prepared by dissolving 100 mg carrageenan (Marine Colloidal Div., Springfield, NJ) in 10 mL of sterile saline (0.9%) solution (Travenol). The solution is vortexed for 30 to 45 minutes. Animals are dosed with compound 1 hour before carrageenan challenge. Foot paw edema is induced by injecting 0.10 mL of the 1% carrageenan subcutaneously into the plantar portion of the right hind paw of each rat under light anesthesia. Initial foot paw volume is measured immediately following carrageenan challenge using mercury plethysmography (Buxco Electronics). Edema is measured 5 hours after carrageenan. The difference between the 5-hour and the initial paw volume is expressed as delta edema. The delta edema for each test group of animals is used to calculate the percent inhibition of edema achieved by the compound at the test dose compared with the vehicle control group. The data in Table I (the dose at which swelling is inhibited by the noted percent) is calculated by probit analysis for the dose at which percent inhibition occurs.

[2] = system: Cyclooxygenase; test: ARBC whole cell cyclooxygenase assay (PGF2α formation, RBL-1 cells); type: cell-based, rat; conditions: A23187 stimulated
Experimental: (§1) ARBL/ARBC Cell 5-Lipoxygenase and Cyclooxygenase Assays The rat basophilic leukemia cell line (RBL-1) was obtained from the American Type Culture Collection (Rockville, MD). Radioimmunoassay (RIA) kits of LTB4 and PGF2α were obtained from Amersham (Arlington Heights, IL) and Seragen (Boston, MA), respectively. RBL-1 cells are grown in suspension culture in Eagle's minimum essential medium supplemented with 12% fetal bovine serum at 37° C in an incubator supplied with air-5% carbon dioxide. Cells are harvested by centrifugation. They are washed with cold phosphate buffered saline pH 7.4 (PBS; NaCl, 7.1 g; Na2 HPO4, 1.15 g; KH2 PO4, 0.2 g; and KCl, 0.2 g/L). Cells are finally suspended in PBS containing 1.0 mM calcium at a density of 2×10^6 cells/mL. Cells are incubated with and without test agent (in DMSO) (1% DMSO is without effect on arachidonic acid metabolism) for 10 minutes at room temperature. Calcium ionophore A23187 (5 μM) is added and cells are incubated for 7 minutes at 37° C. The reaction is stopped by chilling the tubes on ice for 10 minutes. Cells are separated by centrifugation and the supernatant is stored at -20° C. Aliquots (100 μ L) are analyzed for LTB4 and PGF2α using radioimmunoassay kits as provided by the supplier. Table I contains biochemical data obtained from this whole cell assay as IC50 s which are calculated as the amount of test compound causing 50% inhibition or % of inhibition at the named micromoles (μM) of […] or PGF2α formation.

[3] = biological target: T1, 5-Lipoxygenase (Rattus norvegicus, UniProt P12527); test: ARBL whole cell 5-lipoxygenase assay (LTB4 formation, RBL-1 cells); type: cell-based; conditions: A23187 stimulated; for inhibition at 10 µM: read-out: ARBL Percent inhibition of LTB4 @ 10 μM
T1 construct: host or cells: RBL-1 (rat basophilic leukemia)
T1 sequence (P12527 1-673): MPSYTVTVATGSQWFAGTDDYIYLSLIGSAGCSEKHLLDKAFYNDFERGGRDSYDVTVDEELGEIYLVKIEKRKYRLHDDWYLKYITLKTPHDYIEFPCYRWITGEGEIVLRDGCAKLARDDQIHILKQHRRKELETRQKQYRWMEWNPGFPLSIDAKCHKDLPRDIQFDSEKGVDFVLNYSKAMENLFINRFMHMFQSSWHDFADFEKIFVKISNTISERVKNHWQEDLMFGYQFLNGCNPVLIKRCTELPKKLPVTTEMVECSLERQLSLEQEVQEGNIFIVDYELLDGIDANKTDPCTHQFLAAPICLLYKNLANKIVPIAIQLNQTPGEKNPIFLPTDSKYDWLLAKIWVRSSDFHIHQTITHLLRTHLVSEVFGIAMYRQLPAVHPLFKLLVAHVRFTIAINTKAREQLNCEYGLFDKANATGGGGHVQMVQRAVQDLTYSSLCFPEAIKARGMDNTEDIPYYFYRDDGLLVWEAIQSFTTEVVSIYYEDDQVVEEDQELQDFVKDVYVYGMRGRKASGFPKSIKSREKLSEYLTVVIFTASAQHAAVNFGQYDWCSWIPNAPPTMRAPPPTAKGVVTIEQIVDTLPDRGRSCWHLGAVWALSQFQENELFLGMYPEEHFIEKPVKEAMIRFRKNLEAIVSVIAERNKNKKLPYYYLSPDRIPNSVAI
Experimental: as §1

| SMILES | CFE percent inhibition of edema [1] | IC50 ([2]; PGF2α by RIA) | IC50 ([3]; LTB4 by RIA, read-out: ARBL IC50 for LTB4 inhibition) | ARBC Percent inhibition of PGF2α @ 10 μM [2] | inhibition at 10 µM [3] |
| --- | --- | --- | --- | --- | --- |
| Cc1cc(C(=O)c2cc(C(C)(C)C)c(O)c(C(C)(C)C)c2)no1 [Example 1, [3,5-Bis(1,1-dimethylethyl)-4-hydroxyphenyl](5-methyl-3-isoxazolyl)methanon] | 37% | 60 nM | 830 nM |  |  |
| CC(C)(C)c1cc(C(=O)c2nccs2)cc(C(C)(C)C)c1O [Example 4, [3,5-Bis(1,1 dimethylethyl)-4-hydroxyphenyl]-2-thiazolylmethanone] |  |  |  | 91% | 91% |
| CON=C(c1cc(C(C)(C)C)c(O)c(C(C)(C)C)c1)c1cc(C)on1 [Example 14] |  |  |  | 97% | 100% |
